Laboratory results as given in patent US10696692B2, “Amido-benzyl sulfone and sulfoxide derivates” (Forma TM, LLC, priority 2012, dated 2020).
Where two headings read alike, the source gives them in different places.

Key:
A2780 cells = test: Assay 2: In-Vitro Cell Proliferation Assay (A2780 cells, SRB readout, 72 hours); format: cell-based; details: A2780 cells, 72 hours, SRB, read-out: Cell Proliferation (IC50);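 further: viable cells counted via sulforhodamine B staining, absorbance at 570 nm, after 72 h exposure at 37 °C, DMSO 0.1% as control, media-only background subtracted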
NAMPT = NAMPT (Homo sapiens (Human), UniProt P43490); test: Assay 1: Biochemical Inhibition Assay (NAMPT enzymatic reaction, NMN quantified by mass spectrometry); details: read-out: Biochemical (IC50);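 further: recombinant His-tagged human NAMPT preincubated with compound 15 min, then reacted 30 min at rt with 1 µM NAM, 100 µM PRPP, 2.5 mM ATP, NMN product read by RapidFire MS, normalized to L-Cystathionine internal standard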
Sequence of NAMPT (P43490 whole entry): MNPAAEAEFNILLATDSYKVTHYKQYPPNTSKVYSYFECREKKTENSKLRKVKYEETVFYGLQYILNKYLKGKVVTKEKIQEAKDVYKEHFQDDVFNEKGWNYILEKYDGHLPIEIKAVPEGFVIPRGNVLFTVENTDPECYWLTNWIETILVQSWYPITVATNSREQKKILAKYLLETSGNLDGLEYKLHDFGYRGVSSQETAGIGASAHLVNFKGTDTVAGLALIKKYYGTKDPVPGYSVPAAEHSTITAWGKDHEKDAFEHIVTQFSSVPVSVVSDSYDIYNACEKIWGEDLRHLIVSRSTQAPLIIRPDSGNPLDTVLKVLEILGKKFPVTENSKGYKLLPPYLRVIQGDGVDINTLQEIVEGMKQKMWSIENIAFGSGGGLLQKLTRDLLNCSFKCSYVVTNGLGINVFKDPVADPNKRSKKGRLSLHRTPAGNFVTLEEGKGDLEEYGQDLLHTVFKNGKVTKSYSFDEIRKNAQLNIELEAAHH

Compound	IC50 (A2780 cells)	IC50 (NAMPT)	IC50 (A2780 cells; Homo sapiens, A2780, 72 h)
1H-Pyrazolo[3,4- b]pyridine-5-carboxylic acid 4-(4-hydroxymethyl- piperidine-1-sulfonyl)- benzylamide [Example 174]	84.4 nM	152 nM	–
O=C(NCc1ccc(S(=O)(=O)N2CCCC(O)C2)cc1)c1ccc2nccn2c1 (racemic) [Example 19, Imidazo[1,2-a)pyridine-6-carboxylic acid 4-(3-hydroxy-piperidine-1-sulfonyl)-benzylamide]	–	18.1 nM	25.3 nM
O=C(NCc1ccc(S(=O)(=O)N2CCCC(O)C2)cc1)c1cnc2nccn2c1 (racemic) [Example 32, Imidazo[1,2-a]pyrimidine-6-carboxylic acid 4-(3-hydroxy-piperidine-1-sulfonyl)-benzylamide]	–	7.7 nM	861 nM
O=C(NCc1ccc(S(=O)(=O)N2CCCC(O)C2)cc1)c1cnc2[nH]ncc2c1 (racemic) [Example 33, 1H-Pyrazolo[3,4-b]pyridine-5-carboxylic acid 4-(3-hydroxy-piperidine-1-sulfonyl)-benzylamide]	–	169 nM	184 nM
O=C(NCc1ccc(S(=O)(=O)N2CCCC(O)C2)cc1)c1cc2ccncc2o1 (racemic) [Example 34, Furo[2,3-c]pyridine-2-carboxylic acid 4-(3-hydroxy-piperidine-1-sulfonyl)-benzylamide]	–	25.7 nM	51.9 nM
O=C(NCc1ccc(S(=O)(=O)N2CCCC(O)C2)cc1)c1cc2cnccc2[nH]1 (racemic) [Example 35, 1H-Pyrrolo[3,2-c]pyridine-2-carboxylic acid 4-(3-hydroxy-piperidine-1-sulfonyl)-benzylamide]	–	38.3 nM	35.1 nM
CC(C)(C)OC(=O)N1CCCCC12CCCN(S(=O)(=O)c1ccc(CNC(=O)c3ccc4nccn4c3)cc1)C2 (racemic) [Example 123]	–	37.4 nM	17.2 nM
CC(C)(C)OC(=O)N1C[C@@H]2OCCN(S(=O)(=O)c3ccc(CNC(=O)c4ccc5nccn5c4)cc3)[C@@H]2C1 (racemic) [Example 130, cis-4-(4-{[(Imidazo[1,2-a]pyridine-6-carbonyl)-amino]-methyl}-benzenesulfonyl)-hexahydro-pyrrolo[3,4-b][1,4]oxazine-6-carboxylic acid tert-butyl ester]	11.3 nM	75.8 nM	–
CC(C)(C)OC(=O)N1CC2CN(S(=O)(=O)c3ccc(CNC(=O)c4ccc5nccn5c4)cc3)CC(C1)O2 (racemic) [Example 133, cis-7-(4-{[(Imidazo[1,2-a]pyridine-6-carbonyl)-amino]-methyl}-benzenesulfonyl)-9-oxa-3,7-diaza-bicyclo[3.3.1]nonane-3-carboxylic acid tert-butyl ester]	–	330 nM	96.9 nM
CC(C)(C)OC(=O)N1CC2OCCN(S(=O)(=O)c3ccc(CNC(=O)c4ccc5nccn5c4)cc3)C2C1 (racemic) [Example 134, cis-4-(4-{([(Imidazo[1,2-a]pyridine-6-carbonyl)-amino]-methyl}-benzenesulfonyl)-hexahydro-pyrrolo[3,4-b][1,4]oxazine-6-carboxylic acid tert-butyl ester]	49.5 nM	166 nM	–
CC(C)N1CCN(S(=O)(=O)c2ccc(CNC(=O)c3ccc4nccn4c3)cc2)CC1 [Example 18, Imidazo[1,2-a]pyridine-6-carboxylic acid 4-(4-isopropyl-piperazine-1-sulfonyl)-benzylamide]	–	–	12.9 nM
O=C(NCc1ccc(S(=O)(=O)N2CCCCC2)cc1)c1cnc2cn[nH]c2c1 [Example 49, 1H-Pyrazolo[4,3-b]pyridine-6-carboxylic acid 4-(piperidine-1-sulfonyl)-benzylamide]	–	2000 nM	–
O=C(NCc1ccc(S(=O)(=O)N2CCC(N3CCCC3)CC2)cc1)c1cnc2[nH]ncc2c1 [Example 156, 1 H-Pyrazolo[3,4-b]pyridine-5-carboxylic acid 4-(4-pyrrolidin-1-yl-piperidine-1-sulfonyl)-benzylamide]	–	–	35.1 nM
O=C(NCc1ccc(S(=O)(=O)N2CC3COCC3C2)cc1)c1cnc2[nH]ncc2c1 (stereo not drawn) [Example 158, 1H-Pyrazolo[3,4-b]pyridine-5-carboxylic acid 4-(tetrahydro-furo[3,4-c]pyrrole-5-sulfonyl)-benzylamide]	–	–	182 nM
CCN1CCC([S+]([O-])c2ccc(CNC(=O)c3ccc4nccn4c3)cc2)CC1 (stereo not drawn) [Example 370, N-[[4-[(1-ethyl-4-piperidyl)sulfinyl]phenyl]methyl]imidazo[1,2-a]pyridine-6-carboxamide]	–	–	13.4 nM

Continued, values first:

IC50 (A2780 cells)	IC50 (NAMPT)	IC50 (A2780 cells; Homo sapiens, A2780, 72 h)	Compound
–	20.3 nM	9.7 nM	CC(=O)N(C)C1CCN(S(=O)(=O)c2ccc(CNC(=O)c3ccc4nccn4c3)cc2)C1 (racemic) [Example 101, Imidazo[1,2-a]pyridine-6-carboxylic acid 4-[3-(acetyl-methyl-amino)-pyrrolidine-1-sulfonyl]-benzylamide]
–	34.5 nM	5.1 nM	CC(C)(C)OC(=O)N1CCC2(CCCN(S(=O)(=O)c3ccc(CNC(=O)c4ccc5nccn5c4)cc3)C2)C1 (racemic) [Example 102, 7-(4-{[(Imidazo[1,2-a]pyridine-6-carbonyl)-amino]-methyl}-benzenesulfonyl)-2,7-diaza-spiro[4.5]decane-2-carboxylic acid tert-butyl ester]
–	5.6 nM	2.5 nM	O=C(NCc1ccc(S(=O)(=O)N2CCC(C(F)(F)F)C2)cc1)c1ccc2nccn2c1 (racemic) [Example 111, Imidazo[1,2-a]pyridine-6-carboxylic acid 4-(3-trifluoromethyl-pyrrolidine-1-sulfonyl)-benzylamide]
–	17.5 nM	1.25 nM	CC(C)(C)OC(=O)N1CCCC2(C1)CN(S(=O)(=O)c1ccc(CNC(=O)c3ccc4nccn4c3)cc1)CCO2 (racemic) [Example 126, 4-(4-{[(Imidazo[1,2-a]pyridine-6-carbonyl)-amino]-methyl}-benzenesulfonyl)-1-oxa-4,8-diaza-spiro[5.5]undecane-8-carboxylic acid tert-butyl ester]
–	46.9 nM	11.4 nM	CC(C)(C)OC(=O)N1C[C@H]2CN(S(=O)(=O)c3ccc(CNC(=O)c4ccc5nccn5c4)cc3)C[C@H]21 (racemic) [Example 128, cis-3-(4-{[(Imidazo[1,2-a]pyridine-6-carbonyl)-amino]-methyl}-benzenesulfonyl)-3,6-diaza-bicyclo[3.2.0]heptane-6-carboxylic acid tert-butyl ester]
–	19.4 nM	3.22 nM	CC(C)(C)OC(=O)N[C@@]12C[C@@H]1CN(S(=O)(=O)c1ccc(CNC(=O)c3ccc4nccn4c3)cc1)C2 (racemic) [Example 132, cis-[3-(4-{[(Imidazo[1,2-a]pyridine-6-carbonyl)-amino]-methyl}-benzenesulfonyl)-3-aza-bicyclo[3.1.0]hex-1-yl]-carbamic acid tert-butyl ester]
–	20.2 nM	5.52 nM	CC(C)(C)OC(=O)N1C[C@H]2CCN(S(=O)(=O)c3ccc(CNC(=O)c4ccc5nccn5c4)cc3)[C@H]2C1 (racemic) [Example 135, cis-1-(4-{[(Imidazo[1,2-a]pyridine-6-carbonyl)-amino]-methyl}-benzenesulfonyl)-hexahydro-pyrrolo[3,4-b]pyrrole-5-carboxylic acid tert-butyl ester]
